Consider four molecules from paper PMC8153077, “Inhibiting quinolone biosynthesis of Burkholderia” (Chemical Science, 2021).

The term IC50 denotes the concentration at which inhibition is half-maximal.

Test [1] concerns the target T1, HmqD (Burkholderia ambifaria, UniProt Q0B3G0).
T1 construct: gene Bamb_5766; recombinant HmqD overexpressed in live E. coli BL21
Put plainly: live-cell activity-based labelling with click chemistry and in-gel fluorescence; proteomic identification of the modified site. An excerpt:
live-cell activity-based labelling with click chemistry and in-gel fluorescence; proteomic identification of the modified site on HmqD | identified as site of modification by probe CAA only the active site cysteine C114

Test [2] addresses T1, HmqD. Put plainly: competitive live-cell activity-based labelling against probe CAA, in-gel fluorescence.

T1 sequence (Q0B3G0 entry or part of it): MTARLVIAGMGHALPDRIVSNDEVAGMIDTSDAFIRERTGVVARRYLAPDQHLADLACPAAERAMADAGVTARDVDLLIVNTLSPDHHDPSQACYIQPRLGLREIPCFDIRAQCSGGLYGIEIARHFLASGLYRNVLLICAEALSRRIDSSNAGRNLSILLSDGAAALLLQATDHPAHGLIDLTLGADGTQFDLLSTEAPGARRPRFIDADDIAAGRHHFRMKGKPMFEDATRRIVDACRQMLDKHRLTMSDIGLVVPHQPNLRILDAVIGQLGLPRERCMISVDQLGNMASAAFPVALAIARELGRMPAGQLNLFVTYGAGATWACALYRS

With `C#CCCC(=O)NCc1ccc(N)c(C(=O)CCl)c1` [CAA], on HmqD [1], the “live-cell activity-based labelling with click chemistry and in-gel fluorescence;” value is 15 nM.
At HmqD [2], `Nc1ccc(I)cc1C(=O)CCl` [compound 4] returned a half-maximal inhibitory concentration (IC50) of 100 nM.
Still for that read-out and setting: under `Nc1cc2c(cc1C(=O)CCl)OCCO2` [compound 7] stands 200 nM; under `O=C(CCl)c1ccccc1` [compound 9], 200 nM.
